Test results as given in patent US20120196933A1, “MEXILETINE PRODRUGS” (priority 2010, published 2012).
“And” between values parts separate entries of the source, which are not always exact repeats. Equal values may be shown once. Read-outs that look alike come from different tables or passages of the source. Marks after values point to notes of the source that are not given here.

Legend:
[1] = In vitro stability of mexiletine prodrugs under conditions prevailing in the gut; format: physicochemical; conditions: HPLC; for Simulated gastric fluid (pH 1.1): % remaining after 2 h/37° C.: simulated gastric fluid pH 1.1, 2 h; for Simulated intestinal fluid (pH 6.8): % remaining after 2 h/37° C.: simulated intestinal fluid pH 6.8, 2 h
Procedure: To investigate if the prodrugs of the present invention are stable in conditions mimicking the gut, various mexiletine amino acid prodrugs were incubated at 37° C. in simulated gastric and simulated intestinal juice (USP defined composition) for 2 hours. The remaining concentrations of the prodrug were then assayed by HPLC.

[2] = Systemic availability of mexiletine in the dog from mexiletine prodrugs (oral gavage); format: in vivo; conditions: 1 mg/kg mexiletine free base
Procedure: Test substances (i.e., mexiletine, and various mexiletine amino acid prodrugs) were administered by oral gavage to groups of two or some cases five dogs. The characteristics of the test animals are set out in Table 6.
Blood samples were taken at various times after administration and submitted to analysis for parent drug using a validated LC-MS-MS assay. Pharmacokinetic parameters derived from the plasma bioanalytical data were determined using Win Nonlin.

[3] = system: rabbit stomach smooth muscle; experiment: Electrical field stimulated contractions of isolated rabbit stomach smooth muscle; format: cell-based; conditions: read-out: ED50 for attenuation of EFS induced contractions
[4] = In vitro stability of mexiletine prodrugs under conditions prevailing in the gut; format: physicochemical; conditions: 0.1M phosphate buffer pH 7.4, 2 h
[5] = system: ADR mouse; experiment: Anti-myotonic effects in the ADR mouse (righting response); format: in vivo; conditions: oral 5 mg/kg
Procedure: The effects of oral administration of either mexiletine glutamic acid amide at 5, 10 or 20 mg/kg or mexiletine 5 mg/kg on the righting response of a group of three adr/adr mice were examined on three separate days. Each assessment involved placing the individual mice on their back no fewer than seven successive occasions in rapid succession and determining the time to successful righting at various time pre and post dosing (−10, +15, +30, +60, +120 & +180 mins).

[6] = system: 9-AC induced myotonia in the rat; experiment: Anti-myotonic effects in 9-anthracene carboxylic acid (9-AC) treated rats (righting time); format: in vivo; conditions: for Mean ± SEM righting response time: 9-AC 30 mg/kg ip
Procedure: The use of ip injection of 9-anthracene carboxylic acid is known to induce a myotonic state in rats which can then be used to assess the activity of potential anti-myotonic compounds (Villegas-NavarroA et al (1992) Exp. Toxicol. Pathol. 44 34-39).
Groups of four rats were predosed with 30 mg/kg 9-AC (time 0) and ten minutes later their righting time was assessed repeatedly seven times in rapid succession. They were then dosed po with mexiletine or mexiletine glutamic acid amide at 1, 5, 10, 20 or 40 mg/kg and the righting time reassessed at ˜30, 60, 120 and 180 minutes after 9-AC injection. At each dose level, a group of four control animals, given vehicle alone, was used

[7] = system: patients with myotonic disorders; conditions: 1200 mg daily tocamide or 600 mg daily mexiletine, three divided doses; cited from earlier work
[8] = system: patients with myotonic dystrophy (type 1); conditions: 150 tid or 200 mg tid, 7 weeks; cited from earlier work
[9] = Systemic availability of mexiletine in the cynomolgus monkey from mexiletine prodrugs (oral gavage); format: in vivo; conditions: 1 mg/kg mexiletine free base, plasma mexiletine
Procedure: Test substances (i.e., mexiletine, and various mexiletine amino acid prodrugs) were administered by oral gavage to groups of two and, in one case, five male cynomolgus monkeys. Blood samples were taken at various times after administration and submitted to analysis for the parent drug using a validated LC-MS-MS assay. Pharmacokinetic parameters derived from the plasma bioanalytical data were determined using Win Nonlin.

[10] = system: ferret; experiment: Emetic effects following oral administration to the ferret; format: in vivo; conditions: oral 20 mg/kg mexiletine HCl or molar equivalent, individual animals
Excerpt: Male ferrets (n=7) were allowed free access to pelleted diet until late afternoon on the day prior to the day of each test. The food was then removed and the ferrets were starved overnight. Food was not returned until after completion of the emetic observation.

[11] = system: patients; conditions: cited from earlier work
[12] = system: sodium channel; conditions: relative to mexiletine; cited from earlier work
[13] = listed as Mexiletine lysine amide

Cc1cccc(C)c1OCC(C)NC(=O)[C@@H](N)CCCCN.O=C(O)C(F)(F)F.O=C(O)C(F)(F)F (mixture of isomers) [Mexiletine (S)-lysine amide, (Rac)-Mexiletine-(S)-Lysine Ditrifluoroacetate]
Simulated gastric fluid (pH 1.1): % remaining after 2 h/37° C. [1, 13]: 99.8% and 100% | Simulated intestinal fluid (pH 6.8): % remaining after 2 h/37° C. [1, 13]: 80.8% and 100% | AUC of mexiletine ([2]; plasma mexiletine): 301** ng · h/mL | Cmax of mexiletine ([2]; plasma mexiletine): 54.4** ng/mL | T50% Cmax ([2]; plasma mexiletine): 5.0** h | F(rel) ([2]; relative to mexiletine): 28.0** % | EC50 ([3]; rabbit stomach antrum strips, EFS 14 Hz): 21.8 µM | pH 7.4, 37° C. 0.1M phosphate buffer: % remaining after 2 h/37° C. [4]: 100%

Cc1cccc(C)c1OCC(C)N.Cl (racemic) [Mexiletine hydrochloride, (rac)-1-(2,6-dimethylphenoxy)-2-propanamine hydrochloride]
EC50 ([3]; Oryctolagus cuniculus): 2.17 µM | Effects on righting time [5]: marginal | Mean ± SEM righting response time ([5]; +15 mins): 7.80 ± 3.72 s | Mean ± SEM righting response time ([5]; +30 mins): 9.53 ± 5.07 s | Mean ± SEM righting response time ([5]; +60 mins): 10.5 ± 3.68 s | Mean ± SEM righting response time ([5]; +120 mins): 12.5 ± 4.98 s | Mean ± SEM righting response time ([5]; +180 mins): 12.5 ± 4.27 s | Mean ± SEM righting response time ([5]; −10 mins (pre dosing)): 7.94 ± 1.25 s | Coefficient of variation of the response ([6]; 10 mg/kg (same molar dose level), time of maximal effect of 9-AC (+30 mins)): 96% | Mean ± SEM righting response time ([6]; drug 1 mg/kg po, 9-AC +10 mins (predrug)): 1.96 ± 0.193 s | Mean ± SEM righting response time ([6]; drug 1 mg/kg po, 9-AC +30 mins): 2.94 ± 0.490 s | Mean ± SEM righting response time ([6]; drug 1 mg/kg po, 9-AC +60 mins): 1.73 ± 0.165 s | Mean ± SEM righting response time ([6]; drug 1 mg/kg po, 9-AC +120 mins): 1.17 ± 0.124 s | Mean ± SEM righting response time ([6]; drug 1 mg/kg po, 9-AC +180 mins): 0.831 ± 0.169 s | Mean ± SEM righting response time ([6]; drug 5 mg/kg po, 9-AC +10 mins (predrug)): 2.36 ± 0.208 s | Mean ± SEM righting response time ([6]; drug 5 mg/kg po, 9-AC +30 mins): 2.21 ± 0.153 s | Mean ± SEM righting response time ([6]; drug 5 mg/kg po, 9-AC +60 mins): 2.34 ± 0.386 s | Mean ± SEM righting response time ([6]; drug 5 mg/kg po, 9-AC +120 mins): 1.33 ± 0.194 s | Mean ± SEM righting response time ([6]; drug 5 mg/kg po, 9-AC +180 mins): 0.980 ± 0.220 s | Mean ± SEM righting response time ([6]; drug 10 mg/kg po, 9-AC +10 mins (predrug)): 2.26 ± 0.195 s | Mean ± SEM righting response time ([6]; drug 10 mg/kg po, 9-AC +30 mins): 3.28 ± 1.58 s | Mean ± SEM righting response time ([6]; drug 10 mg/kg po, 9-AC +60 mins): 2.28 ± 0.347 s | Mean ± SEM righting response time ([6]; drug 10 mg/kg po, 9-AC +120 mins): 1.41 ± 0.190 s | Mean ± SEM righting response time ([6]; drug 20 mg/kg po, 9-AC +10 mins (predrug)): 2.27 ± 0.260 s | Mean ± SEM righting response time ([6]; drug 20 mg/kg po, 9-AC +60 mins): 1.43 ± 0.294 s | Mean ± SEM righting response time ([6]; drug 20 mg/kg po, 9-AC +120 mins): 0.949 ± 0.131 s | Mean ± SEM righting response time ([6]; drug 40 mg/kg po, 9-AC +10 mins (predrug)): 2.61 ± 0.088 s | Mean ± SEM righting response time ([6]; drug 40 mg/kg po, 9-AC +60 mins): 0.913 ± 0.0507 s | Mean ± SEM righting response time ([6]; drug 40 mg/kg po, 9-AC +120 mins): 0.746 ± 0.0699 s | Mean ± SEM righting response time ([6]; drug 40 mg/kg po, 9-AC +180 mins): 0.583 ± 0.0606 s | Increase in the speed of stair step movement [7]: 2.8 fold | Reduction in the time taken for eye opening [7]: 6 fold | Reduction of hand opening time [7]: 6.9 fold | Reduction in grip relaxation time [8]: 2 fold

Cc1cccc(C)c1OCC(C)NC(=O)CN.O=C(O)C(F)(F)F (racemic) [Mexiletine glycine amide, Glycine-(rac)-mexiletine Trifluoroacetate]
Simulated gastric fluid (pH 1.1): % remaining after 2 h/37° C. [1]: 99.8% | Simulated intestinal fluid (pH 6.8): % remaining after 2 h/37° C. [1]: 99.8% | T50% Cmax ([2]; plasma mexiletine): 5.5** h | T50% Cmax [9]: 3.71** h | EC50 ([3]; Oryctolagus cuniculus, rabbit stomach antrum strips, EFS 14 Hz): 9.16 µM | Total number of individual incidences of retching ([10]; 2 h observation): 20 (2×) and 2 (2×) and 12 and 0 and 10 | Total number of individual incidences of vomiting ([10]; 2 h observation): 5 and 1 (2×) and 2 and 0 (2×) and 3 | Time to onset of retching [10]: 15 min (2×) and 13 min (2×) and 11 min and >120 min and 10 min | Time to onset of vomiting [10]: 17 min and 13 min (2×) and 11 min and >120 min (2×) and 15 min | pH 7.4, 37° C. 0.1M phosphate buffer: % remaining after 2 h/37° C. [4]: 99.9%

CNCC[C@H](Oc1cccc2ccccc12)c1cccs1 [Duloxetine, duloxetine]
Treated patients with nausea ([11]; treated patients): 20-40%

CC(C)C[C@H](CN)CC(=O)O [pregabalin]
Patients with dizziness and somnolence ([11]; patients treated at the higher doses): up to 30%

Cc1cc(O)cc(C)c1OCC(C)N (stereo not shown) [Para-hydroxymexiletine]
Sodium channel inhibitory activity retained relative to the parent molecule [12]: around 25%
